Experimental data published in PubChem BioAssay (NCI).
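96-well plates; 48 h exposure; 5 concentrations. Endpoints by linear interpolation between flanking doses. Not reached: highest tested concentration assigned. Here, GI50 denotes the concentration required for 50% inhibition of growth. TGI: total growth inhibition.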

How the values were obtained:
Assay in all cases: growth of human tumour cells (NCI), 48 h
K-562 leukemia = tested on: K-562 leukemia
OVCAR-8 ovarian = tested on: OVCAR-8 ovarian
PC-3 prostate = tested on: PC-3 prostate
MCF7 breast = tested on: MCF7 breast
SW-620 colon = tested on: SW-620 colon
TK-10 renal = tested on: TK-10 renal
HS 578T breast = tested on: HS 578T breast
HCT-15 colon = tested on: HCT-15 colon
OVCAR-5 ovarian = tested on: OVCAR-5 ovarian
DU-145 prostate = tested on: DU-145 prostate

Question: With `COc1cc(S(=O)(=O)Nc2ccc(C(=O)/C=C/c3ccc(O)cc3)cc2)ccc1F` as the compound, how does the GI50 (K-562 leukemia) read?
Answer: > 100 µM

Question: And the TGI (K-562 leukemia)?
Answer: > 100 µM

Question: What about the GI50 (OVCAR-8 ovarian) of the same compound?
Answer: > 100 µM

Question: And the TGI (OVCAR-8 ovarian)?
Answer: > 100 µM

Question: What about the GI50 (PC-3 prostate) of the same compound?
Answer: > 100 µM

Question: What about the TGI (PC-3 prostate) of the same compound?
Answer: > 100 µM

Question: And the GI50 (MCF7 breast)?
Answer: > 100 µM

Question: And the TGI (MCF7 breast)?
Answer: > 100 µM

Question: What about the GI50 (SW-620 colon) of the same compound?
Answer: > 100 µM

Question: And the TGI (SW-620 colon)?
Answer: > 100 µM

Question: And the GI50 (TK-10 renal)?
Answer: 47 µM

Question: And the TGI (TK-10 renal)?
Answer: > 100 µM

Question: And the GI50 (HS 578T breast)?
Answer: > 100 µM

Question: What about the TGI (HS 578T breast) of the same compound?
Answer: > 100 µM

Question: What about the GI50 (HCT-15 colon) of the same compound?
Answer: > 100 µM

Question: And the TGI (HCT-15 colon)?
Answer: > 100 µM

Question: What about the GI50 (OVCAR-5 ovarian) of the same compound?
Answer: > 100 µM

Question: What about the TGI (OVCAR-5 ovarian) of the same compound?
Answer: > 100 µM

Question: And the GI50 (DU-145 prostate)?
Answer: > 100 µM

Question: What about the TGI (DU-145 prostate) of the same compound?
Answer: > 100 µM
